{"source": "patent US20210379063A1", "about": "“ORAL AMINODIHYDROPHTHALAZINEDIONE COMPOSITIONS AND THEIR USE IN THE TREATMENT OF NON-VIRAL HEPATITIS” (Immunopharma Plus D.O.O., priority 2018, published 2021)", "key": {"[1]": {"procedure": "Title: FaSSGF: Fasted State Simulating Gastric Fluid\nPreparation FaSSGF (for 2000 ml)\nName: FeSSGF: Fed State Simulating Gastric Fluid\nName: FaSSIF Fasted State Simulating Intestinal Fluid\nName: FeSSIF Fed State Simulating Intestinal Fluid\nFor preparation of 2 L media\nName: SCoF (Simulated Colonic Fluid)\nPreparation of 100 ml solution\nPrior to testing • Lactobacilli drops (100 million per dissolution/20 million per permeation donor compartment) added\nEach presented dissolution data is a summary of 3 results."}, "[2]": {"system": "acute experimental hepatitis, tetrachloromethane (CCL4)", "procedure": "Acute experimental hepatitis that develops with the introduction of tetrachloromethane (CCL4) is a classic model for studying the mechanisms of reparative regeneration of the liver after exposure to various chemical toxicants.\nThe experiments were carried out on male Wistar rats weighing 200-220 g, in accordance with the recommendations of the international ethics committees on the humane treatment of laboratory animals (EU Council Directive 86/609 EEC dated Nov. 24, 1986). Carbon tetrachloride (CCL4), was administered to the animals intraperitoneally once at a dose of 50 mg/kg of body weight. […] The animals were sacrificed on the 3rd, 7th day after the simulation of toxic hepatitis."}, "PHMG poisoning": {"system": "PHMG poisoning", "assay": "Acute hepatitis caused by alcohol substitute PHMG in rats", "procedure": "The experiment was carried out on 25 male white outbred rats weighing 200-300 g, in accordance with the recommendations of the international ethics committees on the humane treatment of laboratory animals (EU Council Directive 86/609 EEC dated Nov. 24, 1986). To create an experimental model, an aqueous solution of PHMG was used, which was administered intraperitoneally at a dose of 50 mg/100 g."}, "[3]": {"details": "CCl4 3rd day + Tamerit 2 mg/kg intramuscularly"}, "[4]": {"details": "CCl4 7th day + Tamerit 2 mg/kg intramuscularly"}, "[5]": {"details": "PHMG 3 days + Tamerit intraperitoneally"}, "[6]": {"details": "PHMG 7 days + Tamerit intraperitoneally"}}, "note": "Several values for one entry are separate records, joined by “and”; a condition that tells them apart may be missing. Equal values may be shown once. Read-outs that look alike come from different tables or passages of the source. Marks after values point to notes of the source that are not given here."}
{"molecule": "Nc1cccc2c(=O)[n-][nH]c(=O)c12.[Na+]", "note": "[Tamerit, aminodihydrophthalazinedione sodium]", "values": [{"measurement": "Dissolution, %", "setting": "[1]; FaSSGF pH 1.6, 15 min", "value": 88.24, "unit": "%"}, {"measurement": "Dissolution, %", "setting": "[1]; FaSSGF pH 1.6, 30 min", "value": 90.68, "unit": "%"}, {"measurement": "Dissolution, %", "setting": "[1]; FaSSIF pH 6.5, 30 min, sodium", "value": 98.62, "unit": "%"}, {"measurement": "Dissolution, %", "setting": "[1]; FaSSIF pH 6.5, 60 min", "value": 103.11, "unit": "%"}, {"measurement": "Dissolution, %", "setting": "[1]; FaSSIF pH 6.5, 90 min", "value": 102.16, "unit": "%"}, {"measurement": "Dissolution, %", "setting": "[1]; FaSSIF pH 6.5, 120 min", "value": 102.37, "unit": "%"}, {"measurement": "Dissolution, %", "setting": "[1]; FaSSIF pH 6.5, 180 min", "value": 103.78, "unit": "%"}, {"measurement": "Dissolution, %", "setting": "[1]; FeSSCoF pH 6.0, 15 min, sodium", "value": "90% and 90.07%"}, {"measurement": "Dissolution, %", "setting": "[1]; FeSSCoF pH 6.0, 2 hr", "value": 89.21, "unit": "%"}, {"measurement": "Dissolution, %", "setting": "[1]; FeSSCoF pH 6.0, 4 hr, sodium", "value": "100% and 102.12%"}, {"measurement": "Dissolution, %", "setting": "[1]; FeSSCoF pH 6.0, 24 hr", "value": 95.77, "unit": "%"}, {"measurement": "Dissolution, %", "setting": "[1]; FeSSGF pH 5.0, 15 min", "value": 86.83, "unit": "%"}, {"measurement": "Dissolution, %", "setting": "[1]; FeSSGF pH 5.0, 30 min", "value": 77.65, "unit": "%"}, {"measurement": "Dissolution, %", "setting": "[1]; FeSSGF pH 5.0, 45 min", "value": 75.6, "unit": "%"}, {"measurement": "Dissolution, %", "setting": "[1]; FeSSGF pH 5.0, 90 min", "value": 79.42, "unit": "%"}, {"measurement": "Dissolution, %", "setting": "[1]; FeSSIF pH 5.0, 30 min", "value": 79.65, "unit": "%"}, {"measurement": "Dissolution, %", "setting": "[1]; FeSSIF pH 5.0, 60 min", "value": 69.28, "unit": "%"}, {"measurement": "Dissolution, %", "setting": "[1]; FeSSIF pH 5.0, 90 min, sodium", "value": "90% and 87.40%"}, {"measurement": "Dissolution, %", "setting": "[1]; FeSSIF pH 5.0, 120 min", "value": 84.48, "unit": "%"}, {"measurement": "Dissolution, %", "setting": "[1]; FeSSIF pH 5.0, 180 min", "value": 88.50, "unit": "%"}, {"measurement": "pH at which Tamerit is the most soluble", "setting": "[1]; Tamerit powder dissolution, FIG. 2", "value": 6.5}, {"measurement": "stability", "setting": "[1]; colonic conditions", "value": "very stable"}, {"measurement": "stability", "setting": "[1]; fast and fed conditions of the small intestinal", "value": "quite stable"}, {"measurement": "stability", "setting": "[1]; fast and fed gastric conditions", "value": "sufficient stability"}, {"measurement": "dissolution", "setting": "[1]; fast gastric media", "value": "~90", "unit": "%"}, {"measurement": "dissolution", "setting": "[1]; fed gastric media", "value": "80-90%"}, {"measurement": "ALT, U/L", "setting": "[2]; [3]", "value": "9.1 ± 1.6", "unit": "U/L"}, {"measurement": "AST, U/L", "setting": "[2]; [3]", "value": "10.0 ± 2.0", "unit": "U/L"}, {"measurement": "BCL, quant", "setting": "[2]; [3]", "value": "186.0 ± 7.0", "unit": "quant"}, {"measurement": "ALT, U/L", "setting": "[2]; [4]", "value": "7.12 ± 0.20", "unit": "U/L"}, {"measurement": "AST, U/L", "setting": "[2]; [4]", "value": "8.53 ± 0.13", "unit": "U/L"}, {"measurement": "BCL, quant", "setting": "[2]; [4]", "value": "171 ± 18", "unit": "quant"}, {"measurement": "effect on inflammatory reaction in toxic hepatitis", "setting": "[2]; early stages of toxic hepatitis by tetrachloromethane", "value": "reduces the severity of the inflammatory reaction"}, {"measurement": "degree of hepatocyte destruction", "setting": "PHMG poisoning; 7th day after PHMG", "value": "minimal"}, {"measurement": "ALT, U/L", "setting": "PHMG poisoning; PHMG 3rd day + Tamerit", "value": "5.7 ± 1.9", "unit": "U/L"}, {"measurement": "AST, U/L", "setting": "PHMG poisoning; PHMG 3rd day + Tamerit", "value": "11.3 ± 0.6", "unit": "U/L"}, {"measurement": "GTP, U/L", "setting": "PHMG poisoning; PHMG 3rd day + Tamerit", "value": "17.5 ± 2.0", "unit": "U/L"}, {"measurement": "ALT, U/L", "setting": "PHMG poisoning; PHMG 7th day + Tamerit", "value": "8.1 ± 0.2", "unit": "U/L"}, {"measurement": "AST, U/L", "setting": "PHMG poisoning; PHMG 7th day + Tamerit", "value": "12.1 ± 0.3", "unit": "U/L"}, {"measurement": "GTP, U/L", "setting": "PHMG poisoning; PHMG 7th day + Tamerit", "value": "26.0 ± 3.4", "unit": "U/L"}, {"measurement": "Binuclear cells, %", "setting": "PHMG poisoning; [5]", "value": "65.12 ± 0.14", "unit": "%"}, {"measurement": "Mitotic index, %", "setting": "PHMG poisoning; [5]", "value": "38.26 ± 0.18", "unit": "%"}, {"measurement": "Binuclear cells, %", "setting": "PHMG poisoning; [6]", "value": "61.18 ± 0.24", "unit": "%"}, {"measurement": "Mitotic index, %", "setting": "PHMG poisoning; [6]", "value": "45.6 ± 0.14* ** %"}]}
